The numbers were not newly measured in patent publication US20070281011A1, “Nanoparticulate posaconazole formulations” (Elan Pharma International Ltd., priority 2006, published 2007), which cites them from elsewhere.

One may read the aqueous solubility as how much of the substance goes into solution per volume.

The conditions of data set [1]: meal containing fat calories; regardless of formulation (tablet versus suspension).
Data set [2] deals with cytochrome P450 14a-demethylase (P45014DM). The note with it: particularly in Aspergillus.

For `CC[C@@H]([C@H](C)O)n1ncn(-c2ccc(N3CCN(c4ccc(OC[C@@H]5CO[C@@](Cn6cncn6)(c6ccc(F)cc6F)C5)cc4)CC3)cc2)c1=O` [Posaconazole], the aqueous solubility is below 1 µg/mL. The “increase of relative oral bioavailability” value in data set [1] is “approximately 400%”. In data set [2], the “inhibition of sterol C14 demethylation compared to itraconazole” value is given as “significantly more potent inhibitor”.
